Holding throughout (test): NCI-60 cell line screen, 48 h
For assay [1], the system named is SW-620.
The subject of assay [2] is MOLT-4.
Assay [3] has as its system SNB-19.
In assay [4] the test system is HOP-62.
The subject of assay [5] is NCI-H460.
Assay [6] deals with HT-29.
For assay [7], the system named is LOX IMVI.
Assay [8] concerns EKVX.
Assay [9] deals with COLO 205.
Assay [10] deals with NCI-H226.
Assay [11] has as its system SK-MEL-2.
The test system of assay [12] is OVCAR-4.
For assay [13], the system named is SF-268.
Assay [14] relates to HL-60.
Assay [15] has as its system SK-OV-3.
Assay [16] concerns SF-295.
For assay [17], the system named is IGROV-1.
Assay [18] relates to OVCAR-3.
For assay [19], the system named is UO-31.
For assay [20], the system named is NCI-H23.

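Interpolation was linear, between the two tested concentrations surrounding the appropriate level; five concentrations were tested over 48 hours in 96-well plates. Abbreviation: GI50, concentration required for 50% inhibition of growth.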 Activity calls are given as the source filed them. Rule as the data show it: active = GI50 up to about 1.1 µM and inactive = higher. A value given as a limit tells only on which side of the number the result lay.

With `CC1=C2C(O)C(C(C)C(=O)NC(C)C)CCC2(C)C=CC1=O` (stereo not given), the GI50 in assay [1], in assay [2], in [3], in [4], in assay [5] and in assay [6] was > 100 µM (inactive) each time. In addition, the GI50 in assay [7], in assay [8], in assay [9], in assay [10], in assay [11] and in assay [12] was > 100 µM (inactive) in each case. Besides, the GI50 in assay [13], in [14], in assay [15], in [16], in assay [17] and in assay [18] was > 100 µM (inactive) throughout. The GI50 in [19] and in [20] was > 100 µM (inactive) throughout.

Turning to `CC(=O)OC1CCC2(C)C3CCC4(C)C(c5ccc(=O)oc5)CC5OC54C3CCC2(O)C1` (stereo not given), the GI50 in [1] was 1.21 µM (inactive); in assay [2], 0.348 µM (active); in [3], 5.18 µM (inactive); in [4], 0.811 µM (active); in [5] it was 0.579 µM (active); in assay [6], 2.19 µM (inactive). Also, the GI50 in assay [7] is 1.63 µM (inactive); in assay [8], 0.887 µM (active); in assay [9], 4.28 µM (inactive); in assay [10] it was 4.72 µM (inactive); in assay [11] it was 4.86 µM (inactive); in assay [12], 2.3 µM (inactive). The GI50 is 0.621 µM (active) in assay [13]; 0.522 µM (active) in assay [14]; 4.49 µM (inactive) in assay [15]; 1.15 µM (inactive) in [16]; 2.61 µM (inactive) in [17]; 0.59 µM (active) in assay [18]. Also, the GI50 in assay [19] is 2.49 µM (inactive); in assay [20] it was 0.649 µM (active).

For the compound `Cc1cn(C2CC(N)C(C(=O)NCC(=O)O)O2)c(=O)[nH]c1=O` (stereo not given), the GI50 in assay [1], in [2], in [3], in assay [4], in assay [5] and in [6] was > 100 µM (inactive) throughout. Further, the GI50 in assay [7], in assay [8], in [9], in assay [10], in assay [12] and in [13] was > 100 µM (inactive) in each case. Also, the GI50 in assay [14], in [15], in [17], in assay [18], in [19] and in [20] was > 100 µM (inactive) each time.

Take `COc1ccc(/C(Cl)=C(\C=O)c2ccc(F)cc2)cc1OC`: the GI50 in assay [1] is 28.7 µM (inactive); in assay [2] it was 9.91 µM (inactive); in assay [3], 37.4 µM (inactive); in assay [4], 15.2 µM (inactive); in [5] it was 19.3 µM (inactive); in assay [6], 15.4 µM (inactive). Also, the GI50 in assay [7] was 14.2 µM (inactive); in [8] it was 5 µM (inactive); in assay [9], 19.6 µM (inactive); in assay [10] it was 14 µM (inactive); in [11], 16.4 µM (inactive); in [13] it was 13.5 µM (inactive). Moreover, the GI50 is 7.16 µM (inactive) in [14]; 39.4 µM (inactive) in assay [15]; 21.6 µM (inactive) in assay [16]; 31.9 µM (inactive) in [17]; 22.8 µM (inactive) in [18]; 16.4 µM (inactive) in assay [19]. Further, the GI50 in assay [20] is 16.6 µM (inactive).

Take `COC(=O)C(C(=O)C(=O)Nc1nnc(S)[nH]1)c1csc(-n2nc(-c3ccccc3)cc2-c2ccccc2)n1` (stereo not given): the GI50 in [1] is > 100 µM (inactive); in assay [2], > 100 µM (inactive); in assay [3], > 100 µM (inactive); in assay [4], > 100 µM (inactive); in assay [5], > 100 µM (inactive); in [6] it was 27.5 µM (inactive). In addition, the GI50 in assay [7] was > 100 µM (inactive); in [8], 33.3 µM (inactive); in assay [9] it was > 100 µM (inactive); in assay [10], > 100 µM (inactive); in [12], > 100 µM (inactive); in assay [13], > 100 µM (inactive). Besides, the GI50 in assay [14] is > 100 µM (inactive); in assay [15] it was > 100 µM (inactive); in [17] it was > 100 µM (inactive); in assay [18] it was > 100 µM (inactive); in [19] it was 5.61 µM (inactive); in assay [20] it was > 100 µM (inactive).

As to `CCN1CCC(O)(C(C(=O)O)c2ccccc2)CC1` (stereo not given), the GI50 in assay [1], in [3], in [4], in [5], in assay [6] and in assay [7] was > 100 µM (inactive) in each case. Also, the GI50 in assay [8], in assay [9], in [10], in assay [11], in [12] and in [13] was > 100 µM (inactive) in each case. For the same compound, the GI50 in [14], in assay [15], in [16], in assay [17], in assay [18] and in assay [19] was > 100 µM (inactive) each time. Besides, in assay [20], the GI50 was > 100 µM (inactive).

On to `COc1nc(C#CCC(C)O)nc(OC)n1` (stereo not given), for which the GI50 in [1] was 23.1 µM (inactive); in assay [2], 33.2 µM (inactive); in assay [3] it was > 100 µM (inactive); in assay [4], 4.89 µM (inactive); in [5] it was 39.4 µM (inactive); in assay [6], 31.3 µM (inactive). In addition, the GI50 in assay [7] is 14.2 µM (inactive); in assay [8], 20 µM (inactive); in assay [9], 25.4 µM (inactive); in [11], 33.7 µM (inactive); in assay [12], 18.8 µM (inactive); in assay [13] it was 21.3 µM (inactive). Moreover, the GI50 in [14] is 24.3 µM (inactive); in assay [15], > 100 µM (inactive); in assay [16] it was 30.6 µM (inactive); in assay [17], 15.7 µM (inactive); in assay [18] it was 19.5 µM (inactive); in assay [19], 18.2 µM (inactive). For the same compound, in assay [20], the GI50 was 19.9 µM (inactive).

As for `COC1OC2COC(c3ccccc3)OC2C(OC(=S)c2ccccc2)C1O` (stereo not given), the GI50 in assay [1] was > 100 µM (inactive); in assay [2], > 100 µM (inactive); in [3], > 100 µM (inactive); in assay [4], 12 µM (inactive); in assay [5], 65.9 µM (inactive); in assay [6], > 100 µM (inactive). The GI50 in [7] was 7.76 µM (inactive); in assay [8], 0.358 µM (active); in assay [9], > 100 µM (inactive); in [10], 25.1 µM (inactive); in assay [11] it was 51.1 µM (inactive); in assay [12] it was > 100 µM (inactive). Moreover, the GI50 in assay [13] was 27 µM (inactive); in assay [15] it was 19.2 µM (inactive); in assay [16], 28.8 µM (inactive); in assay [17] it was > 100 µM (inactive); in [18], > 100 µM (inactive); in assay [19] it was > 100 µM (inactive). Moreover, the GI50 in assay [20] is 82.4 µM (inactive).

For `N#CN=C(NCCO)NCCO`, the GI50 in [1], in assay [2], in [3], in assay [4], in assay [5] and in assay [6] was > 100 µM (inactive) in each case. Moreover, the GI50 in assay [7], in assay [8], in [9], in assay [10], in assay [11] and in assay [12] was > 100 µM (inactive) throughout. The GI50 in assay [13], in assay [14], in [15], in [16], in assay [17] and in assay [18] was > 100 µM (inactive) in each case. Moreover, the GI50 in assay [19] is > 100 µM (inactive).

With `C=CCc1c(O)c2c(c3oc(=O)cc(C)c13)CC(C)O2` (stereo not given), the GI50 in [1] is > 100 µM (inactive); in assay [2], 56.5 µM (inactive); in assay [3] it was > 100 µM (inactive); in assay [4], > 100 µM (inactive); in assay [5], 52.5 µM (inactive); in assay [6], 57.7 µM (inactive). The GI50 in [7] was 46.3 µM (inactive); in [8], > 100 µM (inactive); in assay [10] it was 41.5 µM (inactive); in assay [11] it was > 100 µM (inactive); in [12], > 100 µM (inactive); in assay [13] it was > 100 µM (inactive). For the same compound, the GI50 in assay [14] was 86.7 µM (inactive); in assay [15] it was > 100 µM (inactive); in [16], > 100 µM (inactive); in assay [17] it was 20.2 µM (inactive); in [18], > 100 µM (inactive); in [19], 68.9 µM (inactive). In assay [20], the GI50 was > 100 µM (inactive).
